Where a SMILES comes first, the peptide text is derived from it.
Columns and labels:
Plutella xylostella [1] = assay: Leaf dip assay 1 (based on IRAC susceptibility test method 018, performed by FERA); type: in vivo; conditions: unformulated peptide at 2x10^-4 M; Chinese cabbage leaf discs dipped 10 seconds; larvae (2nd/3rd instar); mortality assessed after 120 hours; Figure 4
Protocol: The assay was carried out based on IRAC susceptibility test method 018 by a contract research organization, FERA Science Ltd. Test insects Larvae (2nd/3rd instar) were sourced from a laboratory culture of P. xylostella. The culture has been maintained in a controlled environment (CE) room with conditions of 25 °C and 16:8 lighting regime on Chinese cabbage plants. Chinese cabbage leaves were used in the bioassays. A CE room set at 25 °C and 60% r.h. with a 16 hour light: 8 hours dark lighting regime, was used. Leaf discs (approximately 35mm in diameter) were cut from fully expanded Chinese cabbage leaves. Each leaf disc was dipped in a separate peptide solution for 10 seconds with gentle agitation and placed on a damp filter paper (underside surface uppermost). There were ten replicates for each treatment and control, with five leaf discs per replicate. The treated discs were then put onto damp filter paper in the base of a Petri dishes (90 mm in diameter, 15 mm high) (underside surface uppermost). Five larvae were then transferred onto the treated leaf discs. The dishes were placed in the CE room and mortality was assessed after 120 hours. Leaf dip assays were performed with SB-P-81, and compared to a negative control vehicle and a current commercial insecticide Gazelle SG (shown as the active Acetamiprid). […]

Plutella xylostella [2] = assay: Leaf dip assay 2 (based on IRAC susceptibility test method 019); type: in vivo; conditions: unformulated peptide at 1x10^-4 M; leaf disc on 1% agar; after 96 hours; Figure 6
Protocol: The assay was carried out based on IRAC susceptibility test method 019 (https://irac-online.org/methods/aphids-adultnymphs/). Fill a small 4 cm wide 3 cm high dish with a 1% agar treatment solution of the active chemical or control (ensuring 1 cm gap between the agar and the lid) and leave to set. Dip a 2.5 cm leaf disc into 3 ml of treatment solution allowing the treatment to coat the leaf. Leave the disc to dry for 1 hour and place onto the set agar. Place insects (Plutella xylostella) onto each of the leaf discs. Each unit is sealed with a close-fitting, ventilated lid. Place the agar dishes in a small plastic tray lined with moist tissue paper and ensure the water trays in the bottom of the incubator are filled with clean water and place within the incubator. An assessment of mortality is made at 72, 96 and 120 hours. Leaf dip assays were performed with SB-P-81, and compared to a negative control vehicle and a current commercial insecticide Chlorantraniliprole. The activity of SB-P-81 is shown in Figure 6; SB-P-81 has good activity whilst being eco-friendly and targeted to specific pests unlike broad spectrum chemical insecticides such as Chlorantraniliprole.

CSCC[C@H](NC(=O)[C@H](CO)NC(=O)CNC(=O)CN)C(=O)N[C@H](C(=O)N[C@@H](Cc1ccccc1)C(=O)N[C@@H](CO)C(=O)N1CCC[C@H]1C(=O)N[C@@H](CCCNC(=N)N)C(=O)N[C@@H](CC(C)C)C(N)=O)[C@@H](C)O [SB-P-81, [Hy]-GGSMTFSPRL-[NH2]] (H-GGSMTFSPRL-NH2)
activity against Plutella xylostella (mortality) (Plutella xylostella [1]): good activity
activity against Plutella xylostella (mortality) (Plutella xylostella [2]): good activity

From EP4545547B1, “INSECT NEUROPEPTIDES” (Solasta Bio Limited, priority 2023, dated 2025)
